Data set [1] relates to U-118-MG. Kind of data set: Cytotoxicity against human U-118-MG cells assessed as reduction in cell viability at 0.1 to 10 uM incubated for 24 hrs. As to conditions: dose 0.1-10 µM. In kind it is functional, cell-based.
In data set [2] the test system is U-118-MG. Kind of data set: Induction of apoptosis in human U-118-MG cells assessed as apoptotic rate at 20 uM incubated for 24 hrs by Annexin V-FITC/PI staining based flow cytometric analysis relative to control. It counts as functional. Background: Flow cytometry measures light scatter and fluorescence of single cells or particles in a stream.
Data set [3] can be described thus: Drug distribution in Sprague-Dawley rat brain at 5 mg/kg, ip measured after 4 hrs. In kind it is ADME, organism-based. As to conditions: read-out: Ct.
A short description of data set [4]: Bioavailability in Sprague-Dawley rat at 5 mg/kg, ip. It counts as ADME, organism-based. The note with it: in vivo.
Data set [5] can be described thus: Cmax in Sprague-Dawley rat at 5 mg/kg, ip. In kind it is ADME, organism-based. As to conditions: in vivo.
The subject of data set [6] is U-118-MG. As to the kind of experiment: Cell cycle arrest in human U-118-MG cells assessed as accumulation of cells at G2 phase at 3 uM incubated for 24 hrs by flow cytometric analysis (reference value: 30.6 %). In kind it is functional.
Data set [7] relates to U-118-MG. As to the kind of experiment: Antitumor activity against human U-118-MG cells xenografted in male BALB/c nude mouse assessed as tumor growth inhibition at 2.5 mg/kg, ip administered daily for 4 weeks relative to control. In kind it is functional. The note with it: 672 h, read-out: TGI. (Xenograft models place foreign cells or tissue in a host animal.)
The nature of data set [8]: Toxicity in male BALB/c nude mouse xenografted with human U-118-MG cells assessed as effect on serum urea level at 2.5 to 10 mg/kg, ip administered daily for 4 weeks. The note with it: in vivo, 672 h, dose 2.5-10 mg/kg. It counts as organism-based.
The subject of data set [9] is U-118-MG. As to the kind of experiment: Inhibition of cell migration in human U-118-MG cells assessed as decrease in number of migrating cells at 1 uM incubated for 24 hrs by transwell assay. It counts as functional, cell-based.
Data set [10] in a line: Toxicity in male BALB/c nude mouse xenografted with human U-118-MG cells assessed as metastasis in liver at 2.5 to 10 mg/kg, ip administered daily for 4 weeks by H and E staining based analysis. The note with it: in vivo, 672 h, dose 2.5-10 mg/kg. In kind it is organism-based.
Data set [11] in a line: Stability of compound in sodium carbonate buffer at pH 10 measured after 48 hrs by 1H NMR analysis. It counts as physicochemical. The note with it: pH 10, 48 h.
Data set [12] has as its system U-118-MG. Kind of data set: Antiproliferative activity against human U-118-MG cells assessed as inhibition of cell proliferation incubated for 72 hrs by CCK8 assay. It counts as functional, cell-based. A general note: Tetrazolium dyes change colour on reduction, which living cells bring about.
Data set [13] has as its system U-118-MG. As to the kind of experiment: Inhibition of cell migration in human U-118-MG cells assessed as decrease in number of migrating cells at 0.1 uM incubated for 24 hrs by transwell assay. It counts as functional, cell-based.
A short description of data set [14]: Drug distribution in Sprague-Dawley rat plasma at 5 mg/kg, ip measured after 4 hrs. It counts as ADME, organism-based.
Data set [15] relates to U-118-MG. As to the kind of experiment: Inhibition of cell migration in human U-118-MG cells incubated for 24 hrs by transwell assay. As to conditions: dose 0.1-10 µM. It counts as functional, cell-based.
The subject of data set [16] is U-118-MG. As to the kind of experiment: Antiproliferative activity against human U-118- MG cells assessed as inhibition of cell proliferation at 10 uM by crystal violet staining based analysis. It counts as functional.
Data set [17] deals with U-118-MG. Kind of data set: Cell cycle arrest in human U-118-MG cells assessed as accumulation of cells at G1 phase at 20 uM incubated for 24 hrs by flow cytometric analysis (reference value: 56.2 %). In kind it is functional.
The nature of data set [18]: Ratio of drug concentration in Sprague-Dawley rat brain to plasma at 5 mg/kg, ip measured after 4 hrs. In kind it is ADME, organism-based. As to conditions: read-out: BPR.
Data set [19] concerns U-118-MG. Kind of data set: Inhibition of cell migration in human U-118-MG cells at 0.1 to 10 uM incubated for 24 hrs by microscopy based wound healing assay. The note with it: dose 0.1-10 µM. It counts as functional.
In data set [20] the test system is U-118-MG. As to the kind of experiment: Cell cycle arrest in human U-118-MG cells assessed as accumulation of cells at G2 phase at 10 uM incubated for 24 hrs by flow cytometric analysis (reference value: 30.6 %). It counts as functional.

Active and inactive are the calls of the source. No cut-off for these calls is given here.

Usually bioavailability stands for dose-corrected exposure relative to a reference, in per cent. A lower bioavailability goes with poor availability. In general, Cmax refers to the maximum level reached in the sampled fluid or tissue. Usually IC50 stands for the concentration that gives 50% inhibition.

Take `COc1ccc2c(c1OC)C(=O)O[C@@H]2[C@H]1c2c(c(Br)c3c(c2OC)OCO3)CCN1C(F)(F)F`: the outcome in the data set with U-118-MG [1] was inactive. Also, the Activity with U-118-MG [2] is reported as 23.7%; in the data set with U-118-MG [6], 31.7%; in [8], “Non-toxic”; in data set [10], “Non-toxic”; in the data set with U-118-MG [17], 48.3%; in the data set with U-118-MG [20] it was 32.1%. Besides, the results for the concentration at 4 h in data set [3] and in [14] were 34.5 ng/g and 69.4 ng/mL, respectively. For the same molecule, the bioavailability in data set [4] was determined as 61.3%. In data set [5], this molecule displayed a maximum concentration (Cmax) of 152 ng/mL. Moreover, in the data set with U-118-MG [7], the inhibition in vivo at 2.5 mg/kg came out at 34.4%. Moreover, the inhibition result with U-118-MG [9] is “Active; Superior Inhibitory Activity Compared To Noscapine And Tmz”; in the data set on U-118-MG [15], “Dose-dependent-effect”. The Stability entry in data set [11] was “Stable”. Also, the IC50 in the data set with U-118-MG [12] was 1.55 µM. Also, the inhibition result in the data set with U-118-MG [13] and with U-118-MG [19] was “Active” throughout. Besides, the result in the data set on U-118-MG [16] was Active. Further, the Kp at 4 h in data set [18] was found to be 0.517.

Values taken from ChEMBL document CHEMBL6078714, “Discovery of N-Trifluoromethylated Noscapines as Novel and Potent Agents for the Treatment of Glioblastoma” (J Med Chem, 2025).
